The nature of this data set: Human HepG2 cell viability assay in 384 well format. In kind it is toxicity, cell-based. Set-up: dose 125 nL, time 70.5 hour; concentration not given beside the values. Conditions: HepG2 cells, read-out: Inhibition.
As to `CN(C)CCN1CCN(CC2CC2)c2ncccc2C1`, the cytotoxicity at 70.5 h is -3.26%.
With `COCCN(Cc1cnn(C)c1)C(=O)C1CCC(=O)N(C2CCCC2)C1` (stereo not given), the cytotoxicity at 70.5 h is -15%.
Take `Cn1cnn(Cc2c(F)cccc2Br)c1=O`: the cytotoxicity at 70.5 h was determined as 24.5%.
For the compound `Fc1ccc(Cc2cnc(C3CCCN3)cn2)cc1` (stereo not given), the cytotoxicity at 70.5 h amounted to 16.8%.
To `COC1CN(C(=O)NC2CCCC2)CCC(=O)N(C)c2ccccc21` (stereo not given) belongs -1.11%; to `CSCc1cccc(S(=O)(=O)Nc2cc(C)on2)c1`, 3.33%; to `CN(C)CCOc1ccc(N(C)S(=O)(=O)c2cnn(C)c2)cc1`, -1.43%.
`CC(C)C(=O)Nc1ccc(C(O)Cn2nc(-c3cccs3)oc2=O)cc1` (stereo not given): the cytotoxicity at 70.5 h was 28.2%.
The value for `COc1cc(CN2CC[C@@]3(CCCO3)[C@@H](O)C2)ccc1F` was -7.93%; that for `CCNC(=O)CN(CC)C(=O)c1cccc(Nc2cnn(C)c2)c1` was 6.01%.
To `Cc1cnc(C(=O)N(C)Cc2nc(-c3ccccn3)no2)cn1` belongs 1.35%; to `CN(Cc1ccccc1)c1ncccc1CNC1CCC1`, -2.38%; to `Cc1nc(CN2CCN(Cc3nccn3C)CC2)no1`, 3.86%.
The value for `CN1CC2(CCN(C(=O)c3coc4c3C(=O)CCC4)C2)OC1=O` (stereo not given) was -6.28%; that for `CCN1C(=O)C2(CCOCC2)c2cc(NC(=O)c3cnccn3)ccc21` was 1.85%; that for `OC[C@H]1CC[C@]2(CC1)CN(Cc1ccccc1F)Cc1ccccc1O2` was -3.44%.
Consider `CC(C)C(Sc1nnnn1C1CC1)C(=O)NCc1cccnc1` (stereo not given), for which the cytotoxicity at 70.5 h was -7.01%.
The value for `CCn1ccnc1CN(C)Cc1nc(Cc2ccccc2F)no1` was 7.48%.
The value for `O=C(c1ccc2[nH]nnc2c1)N1C[C@H](O)[C@]2(CCCO2)C1` was -1.24%.
To `CN(C)c1cc(CNC(=O)c2ccccc2S(C)(=O)=O)ccn1` belongs 0.46%; to `Cc1ccc(CN(Cc2c[nH]cn2)C2CC(C)(C)NC(C)(C)C2)o1`, -9.95%; to `O=S1(=O)C[C@@H]2[C@H](C1)N(Cc1ncc[nH]1)CCN2Cc1cccnc1`, -3.77%.
On to `Cc1cncnc1C1CCN(CC2CC2)CC1`, for which the cytotoxicity at 70.5 h turned out to be 19.8%.
For `CN(Cc1cccs1)C(=O)CN1CCOC(Cn2cncn2)C1` (stereo not given), the cytotoxicity at 70.5 h came to 17.4%.
The value for `COC(=O)c1cc(C)nc(N2CCN(Cc3ccn(C(C)C)c3)CC2)n1` was -18.7%.
The value for `CN1C[C@@H](C(=O)NCC(F)(F)F)[C@@]2(CCc3ccccc3C(=O)N2)C1` was 3.97%; that for `COc1ccccc1[C@@H]1CN(Cc2cnc(N(C)C)nc2)C[C@H]1C(=O)O` was -6.22%; that for `O=S(=O)(c1ccccc1)N1CCOC(Cn2ccnc2)C1` (stereo not given) was -6.05%.
The value for `Cc1cnn(CC2CCCN2CC(=O)Nc2nccs2)c1` (stereo not given) was 3.35%; that for `Cc1nccc(C2CCCN(C(=O)c3cncnc3)C2)n1` (stereo not given) was -5.03%; that for `CCN(Cc1ccco1)C(=O)Nc1cc(C(F)(F)F)c[nH]c1=O` was 11.4%.
`CC(C)CCN1C(=O)c2ccc(C(=O)NCCc3c[nH]cn3)cc2C1=O`: the cytotoxicity at 70.5 h was -4.63%.
On to `CN1CC=C(c2noc(CCC(=O)N3CCc4ccccc43)n2)CC1`, for which the cytotoxicity at 70.5 h is -26.2%.
For the compound `CNC(=O)CNC(=O)CC1C(=O)NCCN1Cc1ccccc1C` (stereo not given), the cytotoxicity at 70.5 h is -5.79%.
The value for `Cc1cc(C)n(CC(C)NC2CCN(Cc3cccc(O)c3)CC2)n1` (stereo not given) was -7.84%; that for `Cc1cc(NCCSc2nccn2C)n2nc(C)c(C)c2n1` was -4.55%.
To `CC(C)c1nnc(NC(=O)NC2CCOc3ccccc32)s1` (stereo not given) belongs -2.44%; to `COCCNC(=O)c1cc(C2CC2)nc2onc(C3CCNC3)c12` (stereo not given), -7.31%; to `COc1cc2nc(C)n(CC(=O)NCCN(C)C)c(=O)c2cc1OC`, -17.2%.
To `O=S(=O)(NCC1CCN(c2cnccn2)CC1)C1CC1` belongs 30.4%; to `CN(C)C[C@H]1OC[C@@H]2CCN(C(=O)NCc3cccc(F)c3)C[C@@H]21`, -5.72%; to `CCC1=N[C@@]2(CC[C@@H]3CN(C(=O)NC(C)C)C[C@@H]32)C(=O)N1C`, -1.59%.
As for `Cn1cnc(S(=O)(=O)N2CCCC2c2ccnc3nccn23)c1` (stereo not given), the cytotoxicity at 70.5 h was determined as 0.418%.
To `Cc1cc(NCC2(O)CCOCC2)c2ccccc2n1` belongs -4.68%.
To `COC(=O)C1CN(Cc2ccn(-c3ccc(F)cc3)n2)CCO1` (stereo not given) belongs 5.92%; to `Cc1ccc(OCC(=O)NS(=O)(=O)Cc2ccccc2)cc1`, -5.22%; to `O=C(CCCn1cccn1)N1C[C@@H](O)[C@H](Oc2cccc(F)c2)C1`, 3.04%.
To `CCC(=O)Nc1cccc(OCC(=O)N[C@@H]2C[C@H]3CC[C@@H]2C3)c1` belongs -22.4%.
Regarding `CCc1nc2n(n1)CC(NCC(=O)Nc1cc(C)on1)CC2` (stereo not given), the cytotoxicity at 70.5 h was 12.5%.
To `CN(Cc1cc(C[C@@H]2C[C@H](N)C2(C)C)no1)c1ccccc1` belongs -5.24%; to `CCC(C)N(Cc1cccnc1)C(=O)c1ccc(F)c(O)c1` (stereo not given), 12.9%.
To `CCOc1ccccc1C(=O)N1CCCC1c1ncc2c(n1)CCNC2` (stereo not given) belongs 22.9%; to `Cc1n[nH]c(C)c1CNCC(O)c1cccc(Cl)c1` (stereo not given), -13.1%; to `CCc1cnc(N2CC[C@H]3[C@@H]2CCC(=O)N3CC2CCOCC2)nc1`, 20.9%.
The value for `O=C(NCCCc1nc(=O)[nH][nH]1)c1ccc(Cl)cn1` was -15.2%; that for `CS(=O)(=O)NCC(=O)N[C@H]1CN(CC2CC2)C[C@@H]1c1ccccc1` was -9.72%.
In the case of `NCC1[C@H]2CN(Cc3cccc(Cl)c3)C[C@@H]12` (stereo not given in full), the cytotoxicity at 70.5 h was -5.77%.
To `COCCOc1ccc(NC(=O)C2CCCN(C(N)=O)C2)cn1` (stereo not given) belongs 4.12%.
In the case of `CCc1ccc(S(=O)(=O)NCCOc2ccc3nnc(C)n3n2)s1`, the cytotoxicity at 70.5 h is -11.7%.
To `N#Cc1ccccc1C(=O)NCCC1CN(Cc2ccco2)CCO1` (stereo not given) belongs 2.72%; to `CC(C)Oc1ccccc1C1CC(=O)Nc2nc(N3CCOCC3)sc21` (stereo not given), -13.2%.
As for `CC(C)OCCCN(CC(=O)N1CCNCC1)C(=O)c1ccc(F)cc1`, the cytotoxicity at 70.5 h was 19.8%.
To `O=C(NCc1nnc2n1CCC2)c1ccc(Br)s1` belongs -5.66%.
The value for `CCC(=O)Nc1ccc2c(c1)C1(CCOCC1)CN2CCOC` was 13.5%; that for `Cc1ccc(CC(=O)NCCCNS(C)(=O)=O)cc1` was 1.07%; that for `CN1C[C@@H](NC(=O)c2ccccc2)C[C@H]1c1nc(-c2cnccn2)no1` was 10.6%.
The value for `COCCN(CCC#N)S(=O)(=O)c1ccc(F)cc1F` was 0.44%; that for `c1ccc(-c2nnc([C@H]3CCN(C4CCOCC4)C3)o2)cc1` was -0.562%; that for `COc1ccccc1C(=O)NC(c1ccccn1)[C@H]1CC[C@H](CN)CC1` (stereo not given in full) was -4.28%.
`Cc1ccc(O)c(-c2cc(NCCO)nc3[nH]ccc23)c1`: the cytotoxicity at 70.5 h was -4.62%.
